Experimental findings from ChEMBL document CHEMBL1811798, “Synthesis and evaluation of 2'-O-allyl substituted dinucleotide cap analog for mRNA translation” (Bioorg Med Chem, 2010) are described below.

For one assay, the system named is Escherichia phage T7. The assay can be described thus: Binding affinity to bacteriophage T7 RNA polymerase assessed as incorporation of compound into supercoiled mRNA transcript at 6 mM after 2 hrs.
Assay [1] has as its system Nucleic Acid. The assay can be described thus: Capping efficiency on beta-actin mRNA using [alpha-32P]-ATP at 1.6 mM after 2 hrs by gel shift assay in presence of T7 RNA polymerase. The assay is classed as nucleic-acid assay. In general terms: Mobility shift assays separate free from complexed probe on a gel.
The subject of assay [2] is Nucleic Acid. In words: Capping efficiency on beta-actin mRNA using [alpha-32P]-ATP at 1.6 mM after 2 hrs by HPLC analysis in presence of T7 RNA polymerase. The assay is classed as nucleic-acid assay.
A further assay relates to HeLa. The assay can be described thus: Translational efficiency bacteriophage T7 RNA polymerase expressed in human HeLa cells assessed as protein production using 5'-capped RAN after 16 hrs of post-transfection by luciferase reporter gene assay relative to standard cap analog. The class given is cell-based. As to conditions: Escherichia phage T7. In general terms: Reporter assays use an easily measured gene product as a stand-in for the process of interest.

Activity calls are given as the source filed them. The calls are words filed in the database; no cut-off is given here.

In the case of `C=CCO[C@@H]1[C@H](O)[C@@H](COP(=O)(O)OP(=O)([O-])OP(=O)(O)OC[C@H]2O[C@@H](n3cnc4c(=O)[nH]c(N)nc43)[C@H](O)[C@@H]2O)O[C@H]1[n+]1cn(C)c2c(=O)[nH]c(N)nc21`, the result in the assay with Escherichia phage T7 and in the assay with Nucleic Acid [2] was Active. Also, the Activity in the assay on Nucleic Acid [1] worked out at 70%. In addition, in the assay on HeLa, the fold change (FC) worked out at 1.7.
